In brackets after ≈: the same amount, converted by molar mass.
How the values were obtained:
[1] = target: T1, glucocerebrosidase (Gcase) (Homo sapiens, UniProt P04062); assay: Glucocerebrosidase (Gcase) activation assay, 4-methylumbelliferyl-beta-D-glucopyranoside substrate, fluorescence readout; type: biochemical; settings: for activation at 0.1 µM / Percent Gcase Activation, 0.1 μM Test Compound: test compound at 0.1 μM; for activation at 0.1 µM: read-out: Percent Gcase Activation, 0.1 μM Test Compound; for activation at 1 µM / Percent Gcase Activation, 1 μM Test Compound: test compound at 1.0 μM; for activation at 1 µM: read-out: Percent Gcase Activation, 1 μM Test Compound
T1 construct: micellar solution containing 10 nM GCase and 100 nM saposin C
T1 sequence (P04062 40-536): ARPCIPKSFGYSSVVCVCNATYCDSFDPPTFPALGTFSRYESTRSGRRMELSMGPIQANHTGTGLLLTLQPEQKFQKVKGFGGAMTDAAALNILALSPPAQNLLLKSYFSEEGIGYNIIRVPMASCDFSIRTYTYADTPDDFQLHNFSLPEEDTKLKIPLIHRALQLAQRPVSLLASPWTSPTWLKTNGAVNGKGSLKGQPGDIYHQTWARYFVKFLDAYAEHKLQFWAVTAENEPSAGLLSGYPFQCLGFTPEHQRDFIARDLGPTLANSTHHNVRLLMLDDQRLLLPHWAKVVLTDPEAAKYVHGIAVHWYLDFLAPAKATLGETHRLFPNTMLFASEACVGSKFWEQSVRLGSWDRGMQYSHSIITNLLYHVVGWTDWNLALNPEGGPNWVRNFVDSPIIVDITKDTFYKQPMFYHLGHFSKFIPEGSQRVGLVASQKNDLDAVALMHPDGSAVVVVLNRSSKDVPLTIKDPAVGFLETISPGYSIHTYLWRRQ
Outline: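 Readout is endpoint fluorescence (ex 365, em 440 nm) after glycine pH 12.5 stop of a 15-min room-temperature reaction. Enzyme mix: GCase 10 nM plus saposin C 100 nM in 0.37 mol % PS/0.32 mM triton micelles, pH 4.7, compound pre-incubated 30 min; substrate solution 2 mM before 1:1 mixing. Tested at 1.0/0.1 μM, then 3-fold, 8-point series up to 5 μM.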

physchem = settings: water, Compound Solubility in Water
[2] = Compound solubility in water; settings: water, Compound Solubility in Water, in water

CCCCCC(=O)N1C2CCC1CC(NC(=O)c1ccn3c(C)cc(C)nc13)C2 (stereo not shown) [III-127]
activation at 0.1 µM [1]: < 10%
activation at 1 µM [1]: < 30%
solubility (physchem): 6.5 µg/mL (≈ 16.4 µM)

Cc1cc(C)n2ccc(C(=O)NC3CC4CCC(C3)N4CC(F)(F)F)c2n1 (stereo not shown) [III-128]
activation at 0.1 µM [1]: < 10%
activation at 1 µM [1]: < 30%
solubility (physchem): 18.9 µg/mL (≈ 49.7 µM)

Cc1ccnc2c(C(=O)N[C@H]3CCCc4ccccc43)ccn12 [III-255]
activation at 0.1 µM [1]: > 20%
activation at 1 µM [1]: > 60%
solubility [2]: 3.5 µg/mL (≈ 11.5 µM)

Cc1ccnc2c(C(=O)Nc3ccc(-c4ncco4)cc3)ccn12 [III-256]
activation at 0.1 µM [1]: < 10%
activation at 1 µM [1]: > 60%
solubility [2]: 4 µg/mL (≈ 12.6 µM)

Cc1ccnc2c(C(=O)NC3(C)CCOc4ccccc43)ccn12 (stereo not shown) [III-257]
activation at 0.1 µM [1]: 10 to 20%
activation at 1 µM [1]: > 60%
solubility [2]: 28.9 µg/mL (≈ 89.9 µM)

Cc1ccnc2c(C(=O)NC3(C)CCOc4c(F)cccc43)ccn12 (stereo not shown) [III-258]
activation at 0.1 µM [1]: < 10%
activation at 1 µM [1]: > 60%
solubility [2]: 7.6 µg/mL (≈ 22.4 µM)

Cc1ccnc2c(C(=O)NC(C)(C)c3ccccc3)ccn12 [III-259]
activation at 0.1 µM [1]: < 10%
activation at 1 µM [1]: 30 to 60%
solubility [2]: 16.7 µg/mL (≈ 56.9 µM)

CCCCCO[C@H]1CC[C@H](NC(=O)c2ccn3c(C)ccnc23)CC1 [III-260]
activation at 0.1 µM [1]: 10 to 20%
activation at 1 µM [1]: > 60%
solubility [2]: 17.7 µg/mL (≈ 51.5 µM)

Cc1ccnc2c(C(=O)N[C@H](C)c3ccc(F)cc3)ccn12 [III-261]
activation at 0.1 µM [1]: 10 to 20%
activation at 1 µM [1]: 30 to 60%
solubility [2]: 12.7 µg/mL (≈ 42.7 µM)

Cc1ccnc2c(C(=O)NC3(C)CCCc4ccccc43)ccn12 (stereo not shown) [III-262]
activation at 0.1 µM [1]: > 20%
activation at 1 µM [1]: > 60%
solubility [2]: 0.9 µg/mL (≈ 2.82 µM)

[2H]C1(NC(=O)c2ccn3c(C)ccnc23)CCCc2ccccc21 (stereo not shown) [III-263]
activation at 0.1 µM [1]: > 20%
activation at 1 µM [1]: > 60%
solubility [2]: 7.1 µg/mL (≈ 23.2 µM)

Cc1ccnc2c(C(=O)NC3(C)CCOc4ccc(F)cc43)ccn12 (stereo not shown) [III-264]
activation at 0.1 µM [1]: 10 to 20%
activation at 1 µM [1]: > 60%
solubility [2]: 12.5 µg/mL (≈ 36.8 µM)

Cc1ccn2ccc(C(=O)Nc3ccc(-c4ncco4)cc3)c2n1 [III-265]
activation at 0.1 µM [1]: < 10%
activation at 1 µM [1]: < 30%
solubility [2]: 2 µg/mL (≈ 6.28 µM)

COCc1cc(C2CC2)nc2c(C(=O)NC3(C)CCOc4cc(F)c(F)cc43)ccn12 (stereo not shown) [III-266]
activation at 0.1 µM [1]: 10 to 20%
activation at 1 µM [1]: > 60%
solubility [2]: 0.9 µg/mL (≈ 2.11 µM)

CCCc1cc(COC)n2ccc(C(=O)NC3(C)CCOc4cc(F)c(F)cc43)c2n1 (stereo not shown) [III-267]
activation at 0.1 µM [1]: < 10%
activation at 1 µM [1]: > 60%
solubility [2]: 0.4 µg/mL (≈ 0.931 µM)

CCCCO[C@H]1CC[C@H](NC(=O)c2ccn3c(COC)cc(C4CC4)nc23)CC1 [III-268]
activation at 0.1 µM [1]: > 20%
activation at 1 µM [1]: > 60%
solubility [2]: 2.1 µg/mL (≈ 5.26 µM)

CCCCO[C@H]1CC[C@H](NC(=O)c2ccn3c(COC)cc(CCC)nc23)CC1 [III-269]
activation at 0.1 µM [1]: 10 to 20%
activation at 1 µM [1]: > 60%
solubility [2]: 0.8 µg/mL (≈ 1.99 µM)

COCc1cc(C2CC2)n2ccc(C(=O)NC3(C)CCOc4cc(F)c(F)cc43)c2n1 (stereo not shown) [III-270]
activation at 0.1 µM [1]: < 10%
activation at 1 µM [1]: 30 to 60%
solubility [2]: 3 µg/mL (≈ 7.02 µM)

Cc1cc(C)n2c(F)cc(C(=O)Nc3ccc(-c4cocn4)cc3)c2n1 [III-271]
activation at 0.1 µM [1]: > 20%
activation at 1 µM [1]: > 60%
solubility [2]: 0.7 µg/mL (≈ 2 µM)

C#CCCCOC1CCC(NC(=O)c2ccn3c(C)cc(C)nc23)C1 (stereo not shown) [III-272]
activation at 0.1 µM [1]: < 10%
activation at 1 µM [1]: > 60%
solubility [2]: 15.8 µg/mL (≈ 46.5 µM)

CCCCCOc1ccc(NC(=O)c2ccn3c(C)cc(C)nc23)cc1 [III-273]
Percent Gcase Activation, 0.1 μM Test Compound [1]: *** (greater than 20% Gcase activation)
Percent Gcase Activation, 1 μM Test Compound [1]: +++ (Gcase activation greater than 60%)
solubility [2]: 0.005 µg/mL (≈ 0.0142 µM)

Cc1cc(C)n2ccc(C(=O)Nc3ccc(-c4ncco4)cc3)c2n1 [III-274]
Percent Gcase Activation, 0.1 μM Test Compound [1]: *** (greater than 20% Gcase activation)
Percent Gcase Activation, 1 μM Test Compound [1]: +++ (Gcase activation greater than 60%)
solubility [2]: 0.06 µg/mL (≈ 0.181 µM)

Cc1cc(C)n2ccc(C(=O)Nc3ccc(-c4cccs4)nc3)c2n1 [III-275]
Percent Gcase Activation, 0.1 μM Test Compound [1]: *** (greater than 20% Gcase activation)
Percent Gcase Activation, 1 μM Test Compound [1]: +++ (Gcase activation greater than 60%)
solubility [2]: 0.01 µg/mL (≈ 0.0287 µM)

Cc1cc(C)n2ccc(C(=O)Nc3ccc(-c4ccco4)cc3)c2n1 [III-276]
Percent Gcase Activation, 0.1 μM Test Compound [1]: *** (greater than 20% Gcase activation)
Percent Gcase Activation, 1 μM Test Compound [1]: +++ (Gcase activation greater than 60%)
solubility [2]: < 0.1 µg/mL

Cc1cc(C)n2ccc(C(=O)Nc3ccc(-c4ccncc4)cc3)c2n1 [III-277]
Percent Gcase Activation, 0.1 μM Test Compound [1]: * (less than 10% Gcase activation)
solubility [2]: 0.01 µg/mL (≈ 0.0292 µM)

Cc1cc(C)n2ccc(C(=O)Nc3ccc(-c4cnn(C)c4)cc3)c2n1 [III-278]
Percent Gcase Activation, 0.1 μM Test Compound [1]: *** (greater than 20% Gcase activation)
solubility [2]: 0.06 µg/mL (≈ 0.174 µM)

Cc1cc(C)n2ccc(C(=O)Nc3ccc(Cl)c(COc4cccnc4)c3)c2n1 [III-279]
Percent Gcase Activation, 0.1 μM Test Compound [1]: *** (greater than 20% Gcase activation)
Percent Gcase Activation, 1 μM Test Compound [1]: +++ (Gcase activation greater than 60%)
solubility [2]: < 0.1 µg/mL

Cc1cc(C)n2ccc(C(=O)Nc3ccc(-c4cnn(C)c4)nc3)c2n1 [III-283]
Percent Gcase Activation, 0.1 μM Test Compound [1]: * (less than 10% Gcase activation)
Percent Gcase Activation, 1 μM Test Compound [1]: + (less than 30% Gcase activation)
solubility [2]: 0.2 µg/mL (≈ 0.577 µM)

Cc1cc(C)n2ccc(C(=O)NC3CCc4nc(C)oc4C3)c2n1 (stereo not shown) [III-284]
activation at 0.1 µM [1]: < 10%
activation at 1 µM [1]: < 30%
solubility [2]: 21.1 µg/mL (≈ 65 µM)

COC1CC(NC(=O)c2ccn3c(C)cc(C)nc23)c2ccccc21 (stereo not shown) [III-285]
activation at 0.1 µM [1]: 10 to 20%
activation at 1 µM [1]: > 60%
solubility [2]: 23.8 µg/mL (≈ 71 µM)

Cc1cc(C)n2ccc(C(=O)N[C@H]3CC[C@H](OC4CC4)CC3)c2n1 [III-286]
activation at 0.1 µM [1]: 10 to 20%
activation at 1 µM [1]: > 60%
solubility [2]: 8.8 µg/mL (≈ 26.9 µM)

CCC(C)(NC(=O)c1ccn2c(C)cc(C)nc12)c1ccccc1 (stereo not shown) [III-287]
activation at 0.1 µM [1]: > 20%
activation at 1 µM [1]: > 60%
solubility [2]: 1.6 µg/mL (≈ 4.98 µM)

Cc1cc(C)n2ccc(C(=O)N[C@H]3CC[C@H](OCC(C)C)CC3)c2n1 [III-288]
activation at 0.1 µM [1]: > 20%
activation at 1 µM [1]: > 60%
solubility [2]: 8.7 µg/mL (≈ 25.3 µM)

Cc1cc(C)n2ccc(C(=O)N[C@H]3CC[C@H](OC(C)(C)C)CC3)c2n1 [III-289]
activation at 0.1 µM [1]: 10 to 20%
activation at 1 µM [1]: > 60%
solubility [2]: 17.1 µg/mL (≈ 49.8 µM)

CCCO[C@H]1CC[C@H](NC(=O)c2ccn3c(C)cc(C)nc23)CC1 [III-290]
activation at 0.1 µM [1]: < 10%
activation at 1 µM [1]: > 60%
solubility [2]: 17.3 µg/mL (≈ 52.5 µM)

Reference: US11351173B2, “Substituted pyrrolo[1,2-a]pyrimidines and their use in the treatment of medical disorders” (Bial—R&D Investments, S.A., priority 2014, dated 2022)
